Tests used:
[1] = tested on: Human immunodeficiency virus 1; test: Antiviral activity against HIV1 3B in human H9 cells assessed as inhibition of viral replication after 3 days by p24 antigen capture assay; format: functional, organism-based; conditions: Human immunodeficiency virus 1, 3B, H9, 72 h
[2] = Therapeutic index, ratio of IC50 for human H9 cells to EC50 for HIV1 3B; format: cell-based; conditions: H9 cells (cytotoxicity) and HIV-1 3B (antiviral), read-out: TI
H9 = test: Cytotoxicity against human H9 cells after 3 days; format: cell-based; conditions: H9, 72 h

| SMILES | EC50 [1] | selectivity ratio [2] | IC50 (H9) |
| --- | --- | --- | --- |
| CCCC(=O)O[C@H]1CC[C@]2(C)[C@H]3CC=C4[C@H]5CC(C)(C)CC[C@]5(C(=O)OC)[C@H](O)C[C@@]4(C)[C@]3(C)CC[C@H]2C1(C)C | 27 µM | 1 | 27 µM |
| CC1(C)C[C@@H]2C3=CC[C@@H]4[C@@]5(C)C[C@H](O)[C@H](O)[C@@](C)(CO)[C@@H]5CC[C@@]4(C)[C@]3(C)C[C@H](O)[C@@]23C[C@@H]1OC3=O | 8 µM | 5 | 40 µM |
| CC(=O)O[C@H]1CC[C@]2(C)[C@H]3CC=C4[C@H]5CC(C)(C)CC[C@]5(C(=O)O)[C@H](OC(C)=O)C[C@@]4(C)[C@]3(C)CC[C@H]2C1(C)C | 2.3 µM | 5.4 | 13 µM |
| CCCC(=O)O[C@H]1CC[C@]2(C)[C@H]3CC=C4[C@H]5CC(C)(C)CC[C@]5(C(=O)OC)[C@H](OC(=O)CCC)C[C@@]4(C)[C@]3(C)CC[C@H]2C1(C)C | 15 µM | > 11 | > 160 µM |
| CCCCC(=O)O[C@H]1CC[C@]2(C)[C@H]3CC=C4[C@H]5CC(C)(C)CC[C@]5(C(=O)OC)[C@H](O)C[C@@]4(C)[C@]3(C)CC[C@H]2C1(C)C | 30 µM | 5.9 | 180 µM |
| COC(=O)[C@]12CCC(C)(C)C[C@@H]1C1=CC[C@@H]3[C@@]4(C)CC[C@H](OC(C)=O)C(C)(C)[C@@H]4CC[C@@]3(C)[C@]1(C)C[C@H]2O | 5.1 µM | 1.5 | 7.6 µM |
| CC1(C)CC[C@]2(C(=O)O)[C@H](O)C[C@]3(C)C(=CC[C@@H]4[C@@]5(C)CC[C@H](O)C(C)(C)[C@@H]5CC[C@]43C)[C@H]2C1 [ECHINOCYSTIC ACID] | 42 µM |  | 74 µM |
| CC1(C)CC[C@]2(C(=O)O)[C@H](O)C[C@]3(C)C(=CC[C@@H]4[C@@]5(C)CC[C@H](O)C(C)(C)[C@@H]5CC[C@]43C)[C@@H]2C1 [ECHINOCYSTIC ACID] |  | 1.8 |  |
| COC(=O)[C@]12CCC(C)(C)C[C@@H]1C1=CC[C@@H]3[C@@]4(C)CC[C@H](O)C(C)(C)[C@@H]4CC[C@@]3(C)[C@]1(C)C[C@H]2O [METHYL ECHINOCYSTATE] | 3.1 µM | 1.6 | 4.9 µM |

Second part, led by results:

| EC50 [1] | SMILES | selectivity ratio [2] | IC50 (H9) |
| --- | --- | --- | --- |
| 13 µM | CC1(C)CC[C@]2(C(=O)O)[C@H](O)C[C@]3(C)C(=CC[C@@H]4[C@@]5(C)CC[C@H](O[C@@H]6O[C@H](CO[C@@H]7OC[C@H](O)[C@H](O)[C@H]7O)[C@@H](O)[C@H](O)[C@H]6O)C(C)(C)[C@@H]5CC[C@]43C)[C@H]2C1 | 3.8 | 50 µM |
| 100 µM | CC1(C)C[C@@H]2C3=CC[C@@H]4[C@@]5(C)C[C@H](O)[C@H](O[C@@H]6O[C@H](CO[C@@H]7OC[C@H](O)[C@H](O)[C@H]7O[C@@H]7OC[C@@H](O)[C@H](O)[C@H]7O)[C@@H](O)[C@H](O)[C@H]6O)[C@@](C)(CO)[C@@H]5CC[C@@]4(C)[C@]3(C)C[C@H](O)[C@@]23C[C@@H]1OC3=O | > 1 | > 100 µM |
| 31 µM | CCCCC(=O)O[C@H]1CC[C@]2(C)[C@H]3CC=C4[C@H]5CC(C)(C)CC[C@]5(C(=O)OC)[C@H](OC(=O)CCCC)C[C@@]4(C)[C@]3(C)CC[C@H]2C1(C)C | 1.8 | 54 µM |
| > 100 µM | C[C@@H]1O[C@@H](OC[C@H]2O[C@@H](OC(=O)[C@]34CCC(C)(C)C[C@@H]3C3=CC[C@@H]5[C@@]6(C)CC[C@H](O[C@@H]7O[C@H](CO[C@@H]8OC[C@H](O)[C@H](O)[C@H]8O[C@@H]8OC[C@@H](O)[C@H](O)[C@H]8O)[C@@H](O)[C@H](O)[C@H]7O)C(C)(C)[C@@H]6CC[C@@]5(C)[C@]3(C)C[C@H]4O)[C@H](O[C@@H]3O[C@@H](C)[C@H](O[C@@H]4OC[C@@H](O)[C@H](O[C@@H]5OC[C@@H](O)[C@H](O)[C@H]5O)[C@H]4O)[C@@H](O)[C@H]3O)[C@@H](O)[C@@H]2O)[C@H](O)[C@H](O)[C@H]1O |  | 43 µM |
| 9.9 µM | COC(=O)[C@]12CCC(C)(C)C[C@@H]1C1=CC[C@@H]3[C@@]4(C)CC[C@H](O[C@@H]5O[C@H](CO[C@@H]6OC[C@H](O)[C@H](O)[C@H]6O[C@@H]6OC[C@@H](O)[C@H](O)[C@H]6O)[C@@H](O)[C@H](O)[C@H]5O)C(C)(C)[C@@H]4CC[C@@]3(C)[C@]1(C)C[C@H]2O | 2.2 | 22 µM |
| > 100 µM | CC1(C)CC[C@]2(C(=O)O)[C@H](O)C[C@]3(C)C(=CC[C@@H]4[C@@]5(C)CC[C@H](O[C@@H]6O[C@H](CO[C@@H]7OC[C@H](O)[C@H](O)[C@H]7O[C@@H]7OC[C@@H](O)[C@H](O)[C@H]7O)[C@@H](O)[C@H](O)[C@H]6O)C(C)(C)[C@@H]5CC[C@]43C)[C@H]2C1 |  | 37 µM |
| 1.1 µM | C=C[C@@](C)(O)CC/C=C(\C)C(=O)O[C@H]1[C@H](OC[C@H]2O[C@@H](OC(=O)[C@]34CCC(C)(C)C[C@@H]3C3=CC[C@@H]5[C@@]6(C)CC[C@H](O[C@@H]7O[C@H](CO[C@@H]8OC[C@H](O)[C@H](O)[C@H]8O[C@@H]8OC[C@@H](O)[C@H](O)[C@H]8O)[C@@H](O)[C@H](O)[C@H]7O)C(C)(C)[C@@H]6CC[C@@]5(C)[C@]3(C)C[C@H]4O)[C@H](O[C@@H]3O[C@@H](C)[C@H](O[C@@H]4OC[C@@H](O)[C@H](O[C@@H]5OC[C@@H](O)[C@H](O)[C@H]5O)[C@H]4O)[C@@H](O)[C@H]3O)[C@@H](O)[C@@H]2O)O[C@@H](C)[C@H](O)[C@H]1OC(=O)/C(=C/CC[C@](C)(O)C=C)CO [GLEDITSIA SAPONIN C] | 8.9 | 9.8 µM |
| 2.7 µM | C=C[C@](C)(CC/C=C(\C)C(=O)O[C@H]1C[C@@]2(C(=O)O[C@@H]3O[C@H](CO[C@@H]4O[C@@H](C)[C@H](O)[C@@H](O)[C@H]4O)[C@@H](O)[C@H](O)[C@H]3O[C@@H]3O[C@@H](C)[C@H](O[C@@H]4OC[C@@H](O)[C@H](O[C@@H]5OC[C@@H](O)[C@H](O)[C@H]5O)[C@H]4O)[C@@H](O)[C@H]3O)[C@H](CC1(C)C)C1=CC[C@@H]3[C@@]4(C)C[C@H](O)[C@H](O[C@@H]5O[C@H](CO[C@@H]6OC[C@H](O)[C@H](O)[C@H]6O[C@@H]6OC[C@@H](O)[C@H](O)[C@H]6O)[C@@H](O)[C@H](O)[C@H]5O)[C@@](C)(CO)[C@@H]4CC[C@@]3(C)[C@]1(C)C[C@@H]2O)O[C@@H]1OC[C@H](OC(=O)CC(C)C)[C@H](O[C@@H]2O[C@H](CO)[C@@H](O)[C@H](O)[C@H]2O)[C@H]1O [GYMNOCLADUS SAPONIN G] | 5.2 | 14 µM |

From ChEMBL document CHEMBL1159288, “Anti-AIDS agents, 21. Triterpenoid saponins as anti-HIV principles from fruits of Gleditsia japonica and Gymnocladus chinensis, and a structure-activity correlation” (J Nat Prod, 1995)
